The values that follow come from patent publication US20260365670A1, “EGFR INHIBITORS AND USES THEREOF” (DIZAL (JIANGSU) PHARMACEUTICAL CO., LTD., priority 2022, published 2026).

Read-outs that look alike come from different tables or passages of the source.

The target in test [1] is T1, EGFR wild type (Homo sapiens, UniProt P00533).
T1 construct: purchased Carna Bio
Description: Inhibition of EGFR wild type biochemical enzymatic activity (HTRF). Particulars: 1 mM ATP. The gist of the method:
(§1)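 Each enzyme was first added to plates holding compound. The reaction was then started with ATP (1 mM) and peptide substrate (1 μM). It was stopped after 1 h at room temperature with EDTA detection reagents and read at 615/665 nm to derive IC50s.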
On the technique in general: TR-FRET usually uses a lanthanide donor and a delayed reading to cut background.

The target in test [2] is T2, EGFR L858R (Homo sapiens, UniProt P00533, L858R).
T2 construct: purchased Carna Bio
Put plainly: Inhibition of EGFR L858R biochemical enzymatic activity (HTRF). The conditions noted are these: 1 mM ATP. The gist of the method: as §1

Test [3] has as its target T3, EGFR L858R/T790M (Homo sapiens, UniProt P00533, L858R/T790M).
T3 construct: purchased Carna Bio
Put plainly: Inhibition of EGFR L858R/T790M biochemical enzymatic activity (HTRF). Particulars: 1 mM ATP. The gist of the method: as §1

The target of test [4] is T4, EGFR Exon19Del (Homo sapiens, UniProt P00533, DEL746-750).
T4 construct: purchased Carna Bio
Description: Inhibition of EGFR Exon19Del biochemical enzymatic activity (HTRF). The conditions noted are these: read-out: IC50 @Del19. The gist of the method: as §1

The target of test [5] is T5, EGFR Exon19Del/T790M (Homo sapiens, UniProt P00533, DEL746-750/T790M).
T5 construct: purchased Carna Bio
Description: Inhibition of EGFR Exon19Del/T790M biochemical enzymatic activity (HTRF). Particulars: 1 mM ATP. The gist of the method:
as §1

For test [6], the target named is T6, EGFR[T790M/C797S/L858R] (Homo sapiens, UniProt P00533, C797S/L858R/T790M).
T6 construct: purchased Carna Bio
Description: Inhibition of EGFR[T790M/C797S/L858R] biochemical enzymatic activity (HTRF). The conditions noted are these: 1 mM ATP. The method in brief:
as §1

The target in test [7] is T7, EGFR[T790M/C797S/d746-750] (Homo sapiens, UniProt P00533, C797S/DEL746-750/T790M).
T7 construct: purchased Carna Bio
Description: Inhibition of EGFR[T790M/C797S/d746-750] biochemical enzymatic activity (HTRF). The gist of the method: as §1

Test [8] has as its target T8, EGFR (d746-750 C797S) (Homo sapiens, UniProt P00533, C797S/DEL746-750).
T8 construct: purchased signalchem
Put plainly: Inhibition of EGFR (d746-750 C797S) biochemical enzymatic activity (HTRF). Particulars: 1 mM ATP. The gist of the method: as §1

In test [9] the target is T9, EGFR (C797S L858R) (Homo sapiens, UniProt P00533, C797S/L858R).
T9 construct: purchased signalchem
Description: Inhibition of EGFR (C797S L858R) biochemical enzymatic activity (HTRF). The conditions noted are these: 1 mM ATP. The gist of the method:
as §1

Test [10] concerns Ba/F3 cells expressing EGFR mutations. Put plainly: Cell proliferation assay, Ba/F3 cells expressing EGFR mutations (CellTiter-Glo, 72 hours). In kind it is cell-based. The gist of the method:
(§2)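 Ba/F3 cells carrying EGFR mutants (5000/well) or PC-9 cells (500/well) in RPMI1640 were dosed with compound series after overnight attachment and grown 72 h. Viability read by CellTiter-Glo, with day-0 counts subtracted; GI50 from curve fits of % proliferation versus DMSO control.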

Test [11] concerns PC-9. Put plainly: Cell proliferation assay, PC-9 cells (CellTiter-Glo, 72 hours). In kind it is cell-based. Particulars: PC9 cells, read-out: GI50 PC9. The method in brief:
as §2

Test [12] deals with A-431. Put plainly: Cell proliferation assay, A-431 cells (GI50, Table 6). Format: cell-based. Particulars: Homo sapiens, A-431, A-431 cells.
The mark [13] stands for this setting: Mus musculus, BaF3, 72 h, BaF3 cells, EGFR DEL19 - C797S, read-out: GI50 DEL19 - C797S/BaF3.
The mark [14] stands for this setting: Mus musculus, BaF3, 72 h, BaF3 cells, EGFR DEL19 - T790-C797S, read-out: GI50 DEL19 - T790-C797S/BaF3.
[15] abbreviates: Mus musculus, BaF3, 72 h, BaF3 cells, EGFR L858R - C797S, read-out: GI50 L858R - C797S/BaF3.
[16] abbreviates: Mus musculus, BaF3, 72 h, BaF3 cells, EGFR L858R - T790-C797S, read-out: GI50 L858R - T790-C797S/BaF3.
The mark [17] stands for this setting: Mus musculus, BaF3, 72 h, BaF3 cells, EGFR L858R - T790M, read-out: GI50 L858R - T790M/BaF3.
[18] abbreviates: Mus musculus, BaF3, 72 h, BaF3 cells, EGFR L858R, read-out: GI50 L858R/BaF3.
Where [19] appears, read: Mus musculus, BaF3, 72 h, EGFR DEL19 - T790M, read-out: GI50 DEL19 - T790M.
[20] abbreviates: EGFR wild type, 1 h at room temperature, read-out: IC50 @WT.
The mark [21] stands for this setting: 1 h at room temperature, read-out: IC50 @L858R.
Where [22] appears, read: EGFR L858R/T790M, 1 h at room temperature, read-out: IC50 @L858R-T790M.
The mark [23] stands for this setting: EGFR Exon19Del, 1 mM ATP, 1 h at room temperature.
[24] abbreviates: EGFR Exon19Del/T790M, 1 h at room temperature, read-out: IC50 @Del19-T790M.
Setting [25] is: EGFR[T790M/C797S/L858R], 1 h at room temperature, read-out: IC50 @T790M- C797S - L858R.
[26] abbreviates: EGFR[T790M/C797S/d746-750], 1 mM ATP, 1 h at room temperature, read-out: IC50 @T790M - C797S - Del19.
The mark [27] stands for this setting: EGFR (d746-750 C797S), 1 h at room temperature, read-out: IC50 @Del19-C797S.
Setting [28] is: EGFR (C797S L858R), 1 h at room temperature, read-out: IC50 @L858-C797S.

One may read the IC50 as the concentration that inhibits the measured activity by half.

T6 sequence (P00533 25-1210 T790M/C797S/L858R): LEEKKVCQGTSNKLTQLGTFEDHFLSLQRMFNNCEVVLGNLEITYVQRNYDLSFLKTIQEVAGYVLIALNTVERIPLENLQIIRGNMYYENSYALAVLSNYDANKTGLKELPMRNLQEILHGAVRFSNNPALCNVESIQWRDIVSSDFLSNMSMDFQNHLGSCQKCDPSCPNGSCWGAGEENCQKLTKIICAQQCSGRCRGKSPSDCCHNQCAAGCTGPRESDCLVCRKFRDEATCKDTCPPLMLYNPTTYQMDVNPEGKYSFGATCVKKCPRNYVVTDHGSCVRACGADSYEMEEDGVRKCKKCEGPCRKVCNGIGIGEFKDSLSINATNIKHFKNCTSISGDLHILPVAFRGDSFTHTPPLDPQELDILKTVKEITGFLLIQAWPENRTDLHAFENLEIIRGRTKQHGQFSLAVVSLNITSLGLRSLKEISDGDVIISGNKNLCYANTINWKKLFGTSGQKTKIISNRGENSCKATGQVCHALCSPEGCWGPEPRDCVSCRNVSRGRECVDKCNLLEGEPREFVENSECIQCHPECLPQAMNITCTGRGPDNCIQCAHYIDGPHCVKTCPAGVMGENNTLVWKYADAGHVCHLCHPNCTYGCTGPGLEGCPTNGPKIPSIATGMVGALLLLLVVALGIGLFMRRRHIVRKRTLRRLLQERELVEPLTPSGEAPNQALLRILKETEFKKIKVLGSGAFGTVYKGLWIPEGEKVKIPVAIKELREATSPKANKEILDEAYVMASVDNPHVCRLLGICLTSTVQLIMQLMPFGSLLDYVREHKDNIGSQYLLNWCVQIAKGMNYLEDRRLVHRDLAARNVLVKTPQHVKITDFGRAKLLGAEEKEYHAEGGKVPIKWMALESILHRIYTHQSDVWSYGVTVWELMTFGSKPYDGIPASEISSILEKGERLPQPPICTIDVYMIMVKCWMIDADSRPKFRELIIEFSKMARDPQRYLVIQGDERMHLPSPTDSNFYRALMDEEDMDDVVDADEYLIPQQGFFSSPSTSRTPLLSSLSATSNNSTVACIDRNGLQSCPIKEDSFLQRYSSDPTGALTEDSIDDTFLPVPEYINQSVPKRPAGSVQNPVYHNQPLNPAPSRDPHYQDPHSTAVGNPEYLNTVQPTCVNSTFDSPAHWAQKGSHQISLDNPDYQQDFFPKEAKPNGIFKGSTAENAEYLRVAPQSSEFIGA
T7 sequence (P00533 with tags, fused parts or gaps DEL746-750/T790M/C797S limits assumed): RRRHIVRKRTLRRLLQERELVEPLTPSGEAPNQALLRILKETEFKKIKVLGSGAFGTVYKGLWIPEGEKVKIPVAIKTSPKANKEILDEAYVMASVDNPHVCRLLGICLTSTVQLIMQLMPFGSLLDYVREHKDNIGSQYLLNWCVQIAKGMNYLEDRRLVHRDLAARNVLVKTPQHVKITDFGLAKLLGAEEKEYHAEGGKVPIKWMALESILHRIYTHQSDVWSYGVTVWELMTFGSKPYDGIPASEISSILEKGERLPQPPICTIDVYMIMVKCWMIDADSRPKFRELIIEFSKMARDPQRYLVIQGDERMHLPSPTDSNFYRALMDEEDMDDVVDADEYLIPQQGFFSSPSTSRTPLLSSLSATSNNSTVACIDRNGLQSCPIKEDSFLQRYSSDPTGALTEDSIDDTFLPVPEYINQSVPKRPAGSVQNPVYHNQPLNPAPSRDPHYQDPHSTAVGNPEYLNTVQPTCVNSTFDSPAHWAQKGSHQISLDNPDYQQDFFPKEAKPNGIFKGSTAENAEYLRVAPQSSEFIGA
T3 sequence (P00533 25-1210 T790M/L858R): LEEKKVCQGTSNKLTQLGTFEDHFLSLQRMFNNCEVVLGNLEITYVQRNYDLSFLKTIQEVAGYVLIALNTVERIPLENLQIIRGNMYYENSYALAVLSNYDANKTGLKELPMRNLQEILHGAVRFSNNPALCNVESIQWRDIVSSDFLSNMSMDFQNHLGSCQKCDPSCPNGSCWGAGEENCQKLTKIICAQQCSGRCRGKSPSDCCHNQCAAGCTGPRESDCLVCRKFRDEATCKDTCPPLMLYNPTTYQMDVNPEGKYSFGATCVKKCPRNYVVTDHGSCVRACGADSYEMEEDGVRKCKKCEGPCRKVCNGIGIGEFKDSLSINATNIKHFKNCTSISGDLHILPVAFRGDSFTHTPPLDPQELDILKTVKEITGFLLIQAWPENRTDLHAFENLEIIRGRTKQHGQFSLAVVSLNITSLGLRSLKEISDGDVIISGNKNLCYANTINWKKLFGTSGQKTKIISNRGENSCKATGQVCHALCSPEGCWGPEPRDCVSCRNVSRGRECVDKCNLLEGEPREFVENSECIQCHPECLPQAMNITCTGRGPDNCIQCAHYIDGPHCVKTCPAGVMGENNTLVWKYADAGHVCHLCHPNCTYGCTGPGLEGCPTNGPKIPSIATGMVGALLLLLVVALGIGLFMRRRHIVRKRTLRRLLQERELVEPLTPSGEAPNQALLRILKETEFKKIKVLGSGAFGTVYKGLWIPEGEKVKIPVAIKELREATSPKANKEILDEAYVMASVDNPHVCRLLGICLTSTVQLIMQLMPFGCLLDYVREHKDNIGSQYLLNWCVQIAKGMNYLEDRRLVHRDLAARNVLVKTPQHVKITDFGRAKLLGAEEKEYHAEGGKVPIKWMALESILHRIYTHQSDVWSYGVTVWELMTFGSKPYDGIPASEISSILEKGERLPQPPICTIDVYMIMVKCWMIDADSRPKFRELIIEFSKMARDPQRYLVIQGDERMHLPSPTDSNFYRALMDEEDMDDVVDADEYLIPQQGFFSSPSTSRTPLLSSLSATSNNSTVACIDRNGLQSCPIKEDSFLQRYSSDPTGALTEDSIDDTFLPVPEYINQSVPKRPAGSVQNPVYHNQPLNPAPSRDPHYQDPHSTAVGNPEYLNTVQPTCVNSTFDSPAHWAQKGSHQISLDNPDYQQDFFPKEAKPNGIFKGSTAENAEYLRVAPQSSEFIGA
T2 sequence (P00533 25-1210 L858R): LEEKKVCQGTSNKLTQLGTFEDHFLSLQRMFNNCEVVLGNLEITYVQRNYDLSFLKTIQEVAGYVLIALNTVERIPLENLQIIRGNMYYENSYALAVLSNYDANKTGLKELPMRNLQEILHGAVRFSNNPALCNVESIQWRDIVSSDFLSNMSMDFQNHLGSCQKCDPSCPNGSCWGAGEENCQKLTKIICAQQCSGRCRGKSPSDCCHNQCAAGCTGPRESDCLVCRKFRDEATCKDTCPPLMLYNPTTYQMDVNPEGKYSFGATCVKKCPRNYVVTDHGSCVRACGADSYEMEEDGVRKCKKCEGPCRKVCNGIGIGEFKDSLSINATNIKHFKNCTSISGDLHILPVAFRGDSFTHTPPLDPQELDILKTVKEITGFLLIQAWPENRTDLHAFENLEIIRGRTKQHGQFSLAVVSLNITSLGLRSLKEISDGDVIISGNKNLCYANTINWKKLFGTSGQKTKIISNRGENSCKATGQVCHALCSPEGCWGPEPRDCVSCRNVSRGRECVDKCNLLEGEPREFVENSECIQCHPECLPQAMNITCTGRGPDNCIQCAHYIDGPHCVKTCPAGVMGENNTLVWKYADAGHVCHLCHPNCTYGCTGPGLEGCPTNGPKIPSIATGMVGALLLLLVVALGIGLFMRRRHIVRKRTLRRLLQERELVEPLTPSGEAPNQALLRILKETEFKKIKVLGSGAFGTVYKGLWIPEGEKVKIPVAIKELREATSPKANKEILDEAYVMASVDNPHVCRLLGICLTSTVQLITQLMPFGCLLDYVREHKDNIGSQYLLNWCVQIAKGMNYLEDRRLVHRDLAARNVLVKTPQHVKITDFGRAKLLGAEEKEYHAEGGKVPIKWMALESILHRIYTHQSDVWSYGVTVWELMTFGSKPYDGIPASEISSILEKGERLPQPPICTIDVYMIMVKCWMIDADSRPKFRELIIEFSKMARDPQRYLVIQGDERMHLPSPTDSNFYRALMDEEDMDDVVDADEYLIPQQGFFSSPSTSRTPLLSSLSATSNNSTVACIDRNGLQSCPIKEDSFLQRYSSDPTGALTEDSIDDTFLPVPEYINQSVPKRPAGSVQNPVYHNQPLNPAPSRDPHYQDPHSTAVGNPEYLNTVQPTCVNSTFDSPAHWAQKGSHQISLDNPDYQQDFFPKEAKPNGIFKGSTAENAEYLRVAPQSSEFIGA
T4 sequence (P00533 with tags, fused parts or gaps DEL746-750 limits assumed): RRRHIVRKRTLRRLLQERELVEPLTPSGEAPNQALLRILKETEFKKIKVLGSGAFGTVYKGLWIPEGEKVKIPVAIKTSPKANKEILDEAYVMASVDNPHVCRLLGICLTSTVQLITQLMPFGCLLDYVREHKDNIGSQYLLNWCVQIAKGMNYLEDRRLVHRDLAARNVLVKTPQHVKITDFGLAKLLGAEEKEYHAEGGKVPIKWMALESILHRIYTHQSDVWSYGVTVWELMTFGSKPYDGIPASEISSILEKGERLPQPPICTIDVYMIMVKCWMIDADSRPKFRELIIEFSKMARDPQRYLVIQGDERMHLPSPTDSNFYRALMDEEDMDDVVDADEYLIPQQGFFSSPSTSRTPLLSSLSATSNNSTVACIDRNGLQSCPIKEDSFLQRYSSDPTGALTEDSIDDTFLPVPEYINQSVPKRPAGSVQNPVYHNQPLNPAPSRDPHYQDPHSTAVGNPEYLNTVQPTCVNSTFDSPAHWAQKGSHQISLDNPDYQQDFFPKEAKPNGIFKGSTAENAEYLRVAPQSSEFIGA

Turning to `CN(C)[C@H]1CCN(c2ccc3nc4n(c3c2)C23CCC(CC2)CN(CCOc2c(cnn2C)-c2cc(cn(C)c2=O)C(=O)N4)C3)C1` [Example A120], the IC50 was greater than 5000 nM in test [1] (EGFR WT, 1 h, room temperature, read-out: IC50 (nM) @WT); 177 nM in test [2] (1 h, room temperature, read-out: IC50 (nM) @L858R); 374 nM in test [3] (EGFR L858R-T790M, 1 h, room temperature, read-out: IC50 (nM) @L858R-T790M); 22 nM in [4] (EGFR Del19, 1 mM ATP, 1 h, room temperature); 16 nM in [5] (EGFR Del19-T790M, 1 h, room temperature, read-out: IC50 (nM) @Del19-T790M); 113 nM in [6] (EGFR T790M-C797S-L858R, 1 h, room temperature, read-out: IC50 (nM) @T790M- C797S - L858R). The half-inhibitory concentration (IC50) was found to be 15 nM in test [7] (EGFR T790M-C797S-Del19, 1 mM ATP, 1 h, room temperature, read-out: IC50 (nM) @T790M - C797S - Del19); 14 nM in [8] (EGFR Del19-C797S, 1 h, room temperature, read-out: IC50 (nM) @Del19-C797S); 108 nM in test [9] (EGFR L858-C797S, 1 h, room temperature, read-out: IC50 (nM) @L858-C797S). Moreover, the GI50 is 13 nM in test [10] (setting [13]); 71 nM in test [10] (setting [14]); 50 nM in test [10] (setting [15]); 28 nM in test [10] (setting [16]); 113 nM in test [10] (setting [17]); 8.1 nM in test [10] (setting [18]). Besides, the GI50 in test [10] (setting [19]) was 40 nM; in test [11] (Homo sapiens, PC-9, 72 h), 54 nM; in test [12] it was 7850 nM.
In the case of `CCN1CCN(c2ccc3nc4n(c3c2)C23CCC(CN(CCOc5c(cnn5C)-c5cc(cc(C)n5)C(=O)N4)C2)C3)CC1` (single isomer, unassigned) [Example B56B], the half-inhibitory concentration (IC50) in [1] (setting [20]) was determined as 392 nM; in test [2] (setting [21]) it was 26 nM; in test [3] (setting [22]), 3 nM; in test [4] (setting [23]), 4.4 nM; in [5] (setting [24]), 4.1 nM; in test [6] (setting [25]), 1.6 nM. The values for the 50% inhibitory concentration (IC50) in test [7] (setting [26]), in [8] (setting [27]) and in [9] (setting [28]) were 2.3 nM, 1.7 nM and 5.1 nM, respectively. Also, the GI50 in [10] (BaF3 cells, EGFR DEL19 - C797S, read-out: GI50 DEL19 - C797S/BaF3) worked out at 2 nM; in test [10] (BaF3 cells, EGFR DEL19 - T790-C797S, read-out: GI50 DEL19 - T790-C797S/BaF3), 2 nM; in test [10] (BaF3 cells, EGFR L858R - C797S, read-out: GI50 L858R - C797S/BaF3) it was 5 nM; in test [10] (BaF3 cells, EGFR L858R - T790-C797S, read-out: GI50 L858R - T790-C797S/BaF3) it was 2 nM; in [10] (BaF3 cells, EGFR L858R - T790M, read-out: GI50 L858R - T790M/BaF3) it was 2 nM; in test [10] (BaF3 cells, EGFR L858R, read-out: GI50 L858R/BaF3) it was 12 nM. In addition, the GI50 in test [10] (EGFR DEL19 - T790M, read-out: GI50 DEL19 - T790M) was 7 nM; in test [11] it was 10 nM; in test [12], 426 nM.
Turning to `Cc1cc2cc(n1)-c1cnn(C)c1OCCC[C@@H](C)Cn1c(nc3ccc4c(c31)CCN(C1COC1)C4)NC2=O` [Example B13, (11R)-5,11,30-trimethyl-18-(oxetan-3-yl)-7-oxa-4,5,13,18,24,26,31-heptaazahexacyclo[26.3.1.0^{2,6}.0^{13,25}.0^{14,23}.0^{15,20}]dotriaconta-1(31),2(6),3,14,20,22,24,28(32),29-nonaen-27-one], the IC50 came to 2540 nM in [1] (setting [20]); 160 nM in test [2] (setting [21]); 7 nM in [3] (setting [22]); 5.8 nM in test [4] (setting [23]); 3.2 nM in test [5] (setting [24]); 4.2 nM in [6] (setting [25]). The half-inhibitory concentration (IC50) in test [7] (setting [26]) was determined as 4.1 nM; in test [8] (setting [27]), 3.8 nM; in test [9] (setting [28]) it was 37 nM. Besides, the GI50 in test [10] (setting [13]) came out at 4.8 nM; in test [10] (setting [14]), 1 nM; in [10] (setting [15]), 20 nM; in test [10] (setting [16]), 1.2 nM; in test [10] (setting [17]), 3.4 nM; in test [10] (setting [18]) it was 18 nM. Further, the GI50 was 2.9 nM in test [10] (setting [19]); 22 nM in [11] (Homo sapiens, PC-9, 72 h); 507 nM in test [12].
